Source: patent US5317095A, “Alpha-D-glycosyl kasugamycin, its preparation, and antibacterial agent containing the same” (Hayashibara Biochemical Laboratories, Inc., priority 1992, dated 1994)
Like-named read-outs stand apart in the source and are kept apart here.

What was measured:
[1] = pH Stability test of α-D-glucosyl kasugamycin; type: physicochemical; conditions: 120° C. for 1 hour; for remaining at 1 h: buffer, read-out: Residue (%); for remaining at 1 h / Residue (%): mean, n = 5
Method: Fifty μl of 2.56 w/v % aqueous solution of α-D-glucosyl kasugamycin (purity: about 80%), which was prepared according to the method described in Example 3 was mixed with 450 μl of a buffer adjusted to pH 2.0, 4.0, 6.0, 8.0 or 10.0. The mixture was kept at 120° C. for 1 hour in a well-closed container. As the buffer was used 1M HCl- Sodium acetate buffer (pH 2.0 or pH 4.0), 1M acetic acid buffer (pH 6.0), 1M Tris-HCl buffer (pH 8.0) or 1M NH4 OH- NH4 Cl buffer (pH 10.0).
Each of thus obtained mixtures was cooled with a running water. Then, the mixture was diluted 5 times with 0.5M Na3 PO4 -H3 PO4 (pH 6.0). Successively, the diluted mixture subjected to HPLC under the following conditions.
As a comparison was used a sample obtained by diluting 5 times a mixture of 50 μl of 2.56 w/v % aqueous solution of α-D-glucosyl kasugamycin and 450 μl of deionized water with 0.5M Na3 PO4 -H3 PO4 (pH 6.0).
Residue was calculated on the basis of a ratio of the peak area of α-D-glucosyl kasugamycin in each treated mixture to that in the sample as a comparison.
Also, 1.0 w/v % aquous solution of kasugamycin purchased from Hokko Kagaku Kogyo Kabushiki Kaisha was treated in the same manner as described in the case of α-D-glucosyl kasugamycin. Residue in each pH condition was calculated.
Column: ODS-M (commercially avairable from Shimazu Techno Research Co., Ltd.)
Eluate: Acetonitrile/Water*=8/92 (v/v) *0.2M CH3 (CH2)5 SO3 Na (pH was not adjusted) 0.005M Na3 PO4 -H3 PO4 (pH 6.0)

[2] = Solubility in solvents; type: physicochemical
[3] = tested on: α-glucosidase derived from seeds of rice plant; assay: Hydrolysis by α-glucosidase derived from seeds of rice plant; type: in vitro ADME; conditions: enzyme from seeds of rice plant; forms 1 mole of D-glucose per 1 mole of kasugamycin
[4] = Stability in aqueous solution; type: physicochemical; conditions: pH in the range from 3.0 to 7.0
[5] = tested on: dd mice; assay: Acute toxicity; type: in vivo; conditions: peritoneally administered; 7 week-old dd mice; highest dose 3,000 mg per kg body weight
Description: The α-D-glucosyl kasugamycin was peritoneally administered to 7 week-old dd mice for acute toxicity test.

[6] = tested on: α-glucosidase derived from pig liver; assay: Hydrolysis by α-glucosidase derived from pig liver; type: in vitro ADME; conditions: pig liver enzyme; forms 1 mole of D-glucose per 1 mole of kasugamycin
[7] = tested on: α-glucosidase derived from microorganisms of the genus Mucor; assay: Hydrolysis by α-glucosidase derived from microorganisms of the genus Mucor; type: in vitro ADME; conditions: enzyme from genus Mucor; forms 1 mole of D-glucose per 1 mole of kasugamycin

C[C@H]1O[C@H](O[C@H]2[C@H](O)[C@@H](O)[C@@H](O)[C@H](O)[C@@H]2O)[C@@H](N)C[C@@H]1NC(=N)C(=O)O [Kasugamycin, kasugamycin] gave a remaining at 1 h ([1]; pH 2.0) of 76%, a remaining at 1 h ([1]; pH 4.0) of 72.1% and a remaining at 1 h ([1]; pH 6.0) of 26.8%. The remaining at 1 h ([1]; pH 8.0) was 9.5% and the “Residue (%)” value ([1]; pH 10.0) was “trace”.
With α-D-glucosyl kasugamycin the “Solubility in 0.1N hydrochloric acid” value ([2]; 0.1N hydrochloric acid) was “readily soluble”, the “Solubility in 0.1N sodium hydroxide” value ([2]; 0.1N sodium hydroxide) was “readily soluble” and the “Solubility in acetic acid” value ([2]; acetic acid) was “readily soluble”. The Solubility in chloroform ([2]; chloroform) was “insoluble”, the Solubility in ethanol ([2]; ethanol) was “substantially insoluble” and the “Solubility in ethyl acetate” value ([2]; ethyl acetate) was “insoluble”. For the same compound, the Solubility in methanol ([2]; methanol) was “substantially insoluble”, the Solubility in water ([2]; water) was “readily soluble” and the “solubility in water relative to that of kasugamycin” value ([2]; water, room temperature, vs kasugamycin) was “not less than fivefold”. The “Residue (%)” value ([1]; pH 2.0) was 76.2%, the “Residue (%)” value ([1]; pH 4.0) was 75.2% and the “Residue (%)” value ([1]; pH 6.0) was 26.9%. For the same compound, the “times stabler than kasugamycin” value ([1]; pH 8.0, 17.6/9.5) was “approximately 1.85 times”, the “Residue (%)” value ([1]; pH 8.0) was 17.6% and the “Residue (%)” value ([1]; pH 10.0) was “trace”. The “Hydrolysis by α-glucosidase” value [3] was “readily hydrolyed”, the “Stability in an aqueous solution” value [4] was “excellently stable” and the “deaths (acute toxicity)” value [5] was “not observed any deaths”. The “Hydrolysis by α-glucosidase” value [6] was “readily hydrolyed” and the “Hydrolysis by α-glucosidase” value [7] was “readily hydrolyed”.
